Results as given in US8980887B2, “2-aryl imidazo[1,2-a]pyridine-3-acetamide derivatives, preparation methods and uses thereof” (Institute of Pharmacology, priority 2010, dated 2015).

Key:
[1] = target: TSPO protein separated and purified from rat heart (Rattus norvegicus (Rat), UniProt P16257); assay: TSPO and radioligand (3H-PK11195) competitive binding test; details: for Inhibition rate (%): n = 6 times; for IC50 / Ki: 9 gradient concentrations, plotting and fitting
Method: In the present test, TSPO protein separated and purified from rat heart was used as screening target, via competitive binding test with radioligand (^3H-PK11195), to screen TSPO ligand compounds.
Wister rats, 220-260 g, female and male, were sacrificed by decapitation and the rat heart were rapidly separated, weighed and to which homogenized in 10 times volume of Tris-HCl buffer solution (50 mM Tris-HCl, 5 mM MgCl2, 1 mM EDTA, 0.5% (W/V) BSA, 1 mM PMSF, 3 μg/ml proteinase inhibitor, 0.1% NaN3, 0.32M sucrose, pH 7.4) at 15,000 rpm for 30 s, total 5 times. The homogenate was centrifuged under 1000×g for 10 minutes and the supernatant was then centrifuged under 30000×g for 20 minutes. The precipitate was collected, and resuspended with 10 times volume of Tris-HCl buffer solution (pH 7.4) relative to the original weight, then centrifuged under 30000×g for 20 minutes. The precipitate was washed with the same buffer solution, centrifuged under 30000×g for 20 minutes and the precipitate was suspended with the above buffer solution. After sub-packaged (the whole operation procedures were performed under ice bath), the product was stored at −80° C.
3) Competitive Binding Test of Drug to the Receptor (Rat Heart TSPO) and Radioligand (^3H-PK11195):
(1) tubes were placed in reaction condition of 30° C.
(2) all tubes were added with 20 μg of receptor protein in order;
(3) the test tubes were added in order with 20 μL of drugs in certain concentrations;
(4) the non-specific binding tubes were added with 20 μL of non-tagged ligand (PK11195), the final concentration of the non-tagged ligand was 0.1 mM, pre-reacted for 30 min;
(5) all tubes were added in order with 25 μL ^3H-PK11195, the final concentration of the labeled ligand was 1.5 nM;
(6) Tris-HCl Buffer pH7.4 was used to complement the reaction volumes of all tubes to reach 200 μL;
(7) the reaction was performed under 30° C. reaction condition for 1 h;
(8) Then samples were applied to 49-type glass fibre filter, vacuum suction filtered, then washed with 2 ml ice-cold Tris-HCl buffer solution (50 mM Tris-HCl buffer solution, 1 mM EDTA, 5 mM MgCl2, 1 mM PMSF, 0.1% NaN3, 3 μg/ml proteinase inhibitor, pH 7.4). The filter was dried and placed in a scintillation vial with 1 ml of scintillation fluid. The radio-activity was measured by a scintillation counter.

Structure (SMILES) | Inhibition rate (%) ([1]; 1 × 10^−5M) | Inhibition rate (%) ([1]; 1 × 10^−7M) | Inhibition rate (%) ([1]; 1 × 10^−9M) | melting point | IC50 [1] [nM] | Ki [1] [nM]
CCN(Cc1ccncc1)C(=O)Cc1c(-c2ccc(C)cc2)nc2ccc(C)cn12.Cl [Compound 27, N-ethyl-N-(4-pyridinylmethyl)-2-(4-methylphenyl)-6-methylimidazo[1,2-a]pyridine-3-acetamide.hydrochloride] | 91 | 65 | 0 | 222 to 224 °C | – | –
CCN(Cc1ccncc1)C(=O)Cc1c(-c2ccc(Cl)cc2)nc2ccc(C)cn12.Cl [Compound 28, N-ethyl-N-(4-pyridinylmethyl)-2-(4-chlorophenyl)-6-methylimidazo[1,2-a]pyridine-3-acetamide.hydrochloride] | 84 | 33 | 0 | 229 to 231 °C | – | –
CCN(Cc1ccccc1)C(=O)Cc1c(-c2ccc(Cl)cc2)nc2cc(C)ccn12 [Compound 1, N-benzyl-N-ethyl-2-(4-chlorophenyl)-7-methylimidazo[1,2-a]pyridine-3-acetamide] | 100 | 87 | 12 | 192 to 193 °C | – | –
CCN(Cc1ccncc1)C(=O)Cc1c(-c2ccc(Cl)cc2)nc2cc(C)ccn12.Cl [Compound 4, N-ethyl-N-(4-pyridinylmethyl)-2-(4-chlorophenyl)-7-methylimidazo[1,2-a]pyridine-3-acetamide.hydrochloride] | 100 | 50 | 0 | 245 to 247 °C | – | –
COCCN(Cc1ccccn1)C(=O)Cc1c(-c2ccc(C)cc2)nc2cc(C)ccn12.Cl [Compound 17, N-(2-methoxyethyl)-N-(2-pyridinylmethyl)-2-(4-methylphenyl)-7-methylimidazo[1,2-a]pyridine-3-acetamide.hydrochloride] | 83 | 9 | 0 | 239 to 240 °C | – | –
CCN(Cc1ccncc1)C(=O)Cc1c(-c2ccc(OC)cc2)nc2cc(C)ccn12.Cl [Compound 22, N-ethyl-N-(4-pyridinylmethyl)-2-(4-methoxyphenyl)-7-methylimidazo[1,2-a]pyridine-3-acetamide.hydrochloride] | 63 | 9 | 4 | 239 to 242 °C | – | –
COCCN(Cc1cccnc1)C(=O)Cc1c(-c2ccc(C)cc2)nc2cc(C)ccn12.Cl [Compound 18, N-(2-methoxyethyl)-N-(3-pyridinylmethyl)-2-(4-methylphenyl)-7-methylimidazo[1,2-a]pyridine-3-acetamide.hydrochloride] | 69 | 32 | 0 | 224 to 226 °C | – | –
COCCN(Cc1cccnc1)C(=O)Cc1c(-c2ccc(Cl)cc2)nc2cc(C)ccn12.Cl [Compound 6, N-(2-methoxyethyl)-N-(3-pyridinylmethyl)-2-(4-chlorophenyl)-7-methylimidazo[1,2-a]pyridine-3-acetamide.hydrochloride] | 70 | 0 | 0 | 234 to 235 °C | – | –
COCCN(CCN1CCOCC1)C(=O)Cc1c(-c2ccc(C)cc2)nc2ccc(C)cn12.Cl [Compound 26, N-(2-methoxyethyl)-N-(2-morpholinylethyl)-2-(4-methylphenyl)-6-methylimidazo[1,2-a]pyridine-3-acetamide.hydrochloride] | 48 | 1 | 0 | 245 to 247 °C | – | –
CCN(Cc1ccccn1)C(=O)Cc1c(-c2ccc(C)cc2)nc2cc(C)ccn12.Cl [Compound 14, N-ethyl-N-(2-pyridinylmethyl)-2-(4-methylphenyl)-7-methylimidazo[1,2-a]pyridine-3-acetamide.hydrochloride] | 97 | 66 | 14 | 218 to 220 °C | 91 | 38.7
COCCN(CCN1CCOCC1)C(=O)Cc1c(-c2ccc(C)cc2)nc2cc(C)ccn12.Cl [Compound 25, N-(2-methoxyethyl)-N-(2-morpholinylethyl)-2-(4-methylphenyl)-7-methylimidazo[1,2-a]pyridine-3-acetamide.hydrochloride] | 31 | 0 | 0 | 165 to 167 °C | – | –
CCN(Cc1ccccc1)C(=O)Cc1c(-c2ccc(OC)cc2)nc2cc(C)ccn12 [Compound 19, N-benzyl-N-ethyl-2-(4-methoxyphenyl)-7-methylimidazo[1,2-a]pyridine-3-acetamide] | 94 | 76 | 0 | 175 to 178 °C | – | –
COCCN(Cc1ccccn1)C(=O)Cc1c(-c2ccc(OC)cc2)nc2cc(C)ccn12.Cl [Compound 23, N-(2-methoxyethyl)-N-(2-pyridinylmethyl)-2-(4-methoxyphenyl)-7-methylimidazo[1,2-a]pyridine-3-acetamide.hydrochloride] | 85 | 2 | 3 | 214 to 216 °C (dec.) | – | –
COCCN(Cc1ccccn1)C(=O)Cc1c(-c2ccc(Cl)cc2)nc2cc(C)ccn12.Cl [Compound 5, N-(2-methoxyethyl)-N-(2-pyridinylmethyl)-2-(4-chlorophenyl)-7-methylimidazo[1,2-a]pyridine-3-acetamide.hydrochloride] | 100 | 43 | 0 | 238 to 239 °C | – | –
CCN(Cc1cccnc1)C(=O)Cc1c(-c2ccc(OC)cc2)nc2cc(C)ccn12.Cl [Compound 21, N-ethyl-N-(3-pyridinylmethyl)-2-(4-methoxyphenyl)-7-methylimidazo[1,2-a]pyridine-3-acetamide.hydrochloride] | 43 | 11 | 0 | 230 to 232 °C | – | –
CCN(Cc1ccccn1)C(=O)Cc1c(-c2ccc(Cl)cc2)nc2cc(C)ccn12.Cl [Compound 2, N-ethyl-N-(2-pyridinylmethyl)-2-(4-chlorophenyl)-7-methylimidazo[1,2-a]pyridine-3-acetamide.hydrochloride] | 100 | 59 | 0 | 178 to 180 °C | – | –
CCN(Cc1ccccc1)C(=O)Cc1c(-c2ccc(Cl)c(Cl)c2)nc2cc(C)ccn12 [Compound 7, N-benzyl-N-ethyl-2-(3,4-dichlorophenyl)-7-methylimidazo[1,2-a]pyridine-3-acetamide] | 99 | 72 | 10 | 180 to 182 °C | 116 | 49.2
CN1C(=O)CN=C(c2ccc(Cl)cc2)c2cc(Cl)ccc21 [Compound R05-4864, 4′-chlorodiazepam, reference compound] | 100 | 82 | 57 | – | – | –
